Experimental data reported in patent US20020058048A1, “TOPICAL CAPSAICIN PREPARATION” (priority 1998, published 2002).
Where “and” joins values, the source holds several entries; their conditions need not be identical. Identical values can stand only once.

How the values were obtained:
hind-limb of rats = test: Withdrawal latency to thermal stimuli (42° C. water bath) of hind-limb in rats during sensitization by capsaicin; format: in vivo, rat; details: 0.1% capsaicin solution; for Withdrawal latency time, One hour after appln.: 42° C. water bath; for Withdrawal latency time, Before appln.: baseline before application
Protocol: 1. 0.1% capsaicin solutions containing varying amount of polyoxyethylene (60) hydrogenated castor oil were prepared by dissolving 0.1 g of capsaicin and 0, 3, 9 or 18g of the surfactant in 26.4 ml of ethanol and then diluting with distilled water q.s. to make a total volume of 100 ml.
Each of 0.1% capsaicin solution thus prepared was applied to the hind-limb of rats. One hour after the application, the limb was placed in a water bath warmed at 42° C. and the length of time (in seconds) elapsed until when the rat withdrew the treated limb from the water bath was determined. […]

cornea of rats = test: Eye-wiping reflex caused by capsaicin applied to the cornea (eye-wiping method of Jancso); format: in vivo, rat; details: for Number of wiping, Second: challenge with 0.1% capsaicin solution without surfactant 2 hours after pretreatment with 0.1% capsaicin
From the text: 2. The effect of polyoxyethylene (60) hydrogenated castor oil on the eye-wiping reflex caused by capsaicin and the desensitization to chemical stimuli was studied according to the eye-wiping method reported by Jancso N. et al., in “Direct evidence for neurogenic inflammation and its prevention by denervation and by pretreatment with capsaicin”, Br. J. Phamac. Chemother. 31: 138-151, 1967.
When one drop of 0.1% capsaicin solution was applied to the cornea of rats, the animal immediately began to wipe the cornea with front paws and continued the wiping for about 1 minute.
See, Table 2. […] See, Table 3.
4. The effect of various surfactants on the desensitization of sensory nerves by 0.1% capsaicin was evaluated using the procedure of Test 2.

[1] = polyoxyethylene (60) hydrogenated castor oil 0%
[2] = polyoxyethylene (60) hydrogenated castor oil 3%
[3] = polyoxyethylene (60) hydrogenated castor oil 9%
[4] = polyoxyethylene (60) hydrogenated castor oil 18%

COc1cc(CNC(=O)CCCC/C=C/C(C)C)ccc1O [capsaicin] was tested, and the “Withdrawal latency time, One hour after appln.” value (hind-limb of rats; [1]) was “remarkably shortened and 2.45 ± 0.32 sec”, the “Withdrawal latency time, Before appln.” value (hind-limb of rats; [1]) was 30 ± 0 s and the “Withdrawal latency time, One hour after appln.” value (hind-limb of rats; [2]) was “slightly shortened and 20.29 ± 4.18 sec”. For the same compound, the “Withdrawal latency time, Before appln.” value (hind-limb of rats; [2]) was 30 ± 0 s, the “Withdrawal latency time, One hour after appln.” value (hind-limb of rats; [3]) was “not affected significantly and 30 ± 0 sec” and the “Withdrawal latency time, Before appln.” value (hind-limb of rats; [3]) was 30 ± 0 s. The “Withdrawal latency time, One hour after appln.” value (hind-limb of rats; [4]) was “not affected significantly and 27.28 ± 2.35 sec”, the “Withdrawal latency time, Before appln.” value (hind-limb of rats; [4]) was 30 ± 0 s and the “Number of wiping, Second” value (cornea of rats; surfactant 0%) was “significantly reduced and 9.7 ± 1.6”. For the same compound, the “Number of wiping, Second” value (cornea of rats; surfactant 3%) was “significantly reduced and 11.5 ± 0.9”, the “Number of wiping, Second” value (cornea of rats; surfactant 9%) was “significantly reduced and 13 ± 0.7” and the “Number of wiping, Second” value (cornea of rats; surfactant 18%) was “significantly reduced and 11.7 ± 0.6”. For the same compound, the “Duration of wiping of the cornea with front paws” value (cornea of rats; one drop applied to the cornea of rats) was “about 1 minute”, the “Number of wiping, First” value (cornea of rats; pretreatment drop of 0.1% capsaicin solution with surfactant 0%) was 21.5 ± 1.6 and the “Number of wiping, First” value (cornea of rats; pretreatment drop of 0.1% capsaicin solution with surfactant 3%) was “not virtually affected and 24 ± 2.1”. The “Number of wiping, First” value (cornea of rats; pretreatment drop of 0.1% capsaicin solution with surfactant 9%) was “not virtually affected and 23.5 ± 1.1” and the “Number of wiping, First” value (cornea of rats; pretreatment drop of 0.1% capsaicin solution with surfactant 18%) was “not virtually affected and 22 ± 1.4”.
